Each structure is given as a SMILES string. pEC50: −log10 of the molar value.

In the assay the target is human 5-HT2C receptor (Homo sapiens, UniProt P28335, I156V/I160V/N158S). As to the kind of experiment: cell-based.
human 5-HT2C receptor, sequence (P28335 33-458 I156V/N158S/I160V limits assumed): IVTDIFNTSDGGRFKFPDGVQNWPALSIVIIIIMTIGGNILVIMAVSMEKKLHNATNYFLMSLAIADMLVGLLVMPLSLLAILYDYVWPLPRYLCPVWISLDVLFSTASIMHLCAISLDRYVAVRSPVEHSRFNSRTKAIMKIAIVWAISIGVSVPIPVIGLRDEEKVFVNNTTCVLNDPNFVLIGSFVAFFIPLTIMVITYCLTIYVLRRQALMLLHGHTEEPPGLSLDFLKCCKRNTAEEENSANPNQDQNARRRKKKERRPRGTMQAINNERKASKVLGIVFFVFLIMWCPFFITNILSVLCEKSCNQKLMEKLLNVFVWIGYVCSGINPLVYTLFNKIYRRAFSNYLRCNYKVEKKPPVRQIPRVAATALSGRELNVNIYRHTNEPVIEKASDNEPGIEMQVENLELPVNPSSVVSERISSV
What is called pEC50 is −log10 of the EC50, conventionally taken in molar units. A low value points to a large EC50. As for `O=C(C1CN(c2c3c(nc4ccnn24)CCNCC3)C1)N(Cc1ccccc1)Cc1ccc(F)cc1` [Example 31.197], the pEC50 is 6.91. With `Clc1cccc(OC2CN(c3c4c(nc5ccnn35)CCNCC4)C2)c1` [Example 35.50], the pEC50 is 6.68.

Regarding `CC1(C)CCN(C(=O)C2CN(c3c4c(nc5ccnn35)CCNCC4)C2)CC1` [Example 31.47], the pEC50 is 7.68.

Take `c1cc2nc3c(c(C4CCC4)n2n1)CCNCC3` [Example 23, 10-Cyclobutyl-6,7,8,9-tetrahydro-5H-1,4,7,10a-tetraaza-cyclohepta[f]indene]: the pEC50 was 6.94. Regarding `FC(F)(F)c1cccc(N2CCN(c3c4c(nc5ccnn35)CCNCC4)CC2)c1` [Example 7.3], the pEC50 is 6.32. This pEC50 lies 0.62 log units lower than the previous one. The result for `Cc1nc(CN(C)C(=O)C2CN(c3c4c(nc5ccnn35)CCNCC4)C2)c(C)o1` [Example 31.58] reads 7.28; that for `CC1CNCCc2c1nc1ccnn1c2N1CCCCC1` (stereo not drawn) [Example 3, 5-Methyl-10-piperidin-1-yl-6,7,8,9-tetrahydro-5H-1,4,7,10a-tetraaza-cyclohepta[f]indene], 5.74; that for `O=C(C1CN(c2c3c(nc4ccnn24)CCNCC3)C1)N1CCC2(CCCC2)C1` [Example 31.123], 8.05.

`CN1CCc2nc3ccnn3c(N3CC(C(=O)N4CCC(F)(F)CC4)C3)c2CC1` [Example 36.23]: the pEC50 is 6.91. `CC1C=CC(C)N1C(=O)C1CN(c2c3c(nc4ccnn24)CCNCC3)C1` (stereo not drawn) [Example 31.192]: the pEC50 was 6.44. The result for `COCCNC(=O)C1CN(c2c3c(nc4ccnn24)CCNCC3)C1` [Example 37.73] reads 7.06. The result for `N#Cc1cccc(OC2CN(c3c4c(nc5ccnn35)CCNCC4)C2)c1` [Example 35.4] reads 7.09; that for `Brc1ccccc1OC1CN(c2c3c(nc4ccnn24)CCNCC3)C1` [Example 35.7], 7.17.

With `O=C(C1CN(c2c3c(nc4ccnn24)CCNCC3)C1)N1CCCC(Cc2ccc(F)cc2)C1` (stereo not drawn) [Example 31.101], the negative logarithm of the EC50 (pEC50) was 7.21. The compound `CC(C)C(C)NC(=O)C1CN(c2c3c(nc4ccnn24)CCNCC3)C1` (stereo not drawn) [Example 37.77] gave a pEC50 of 7.02. The pEC50 values of the last two compounds are within 0.2 log units of each other. As for `c1cc2nc3c(c(N4CCC4)n2n1)CCNCC3` [Example 7.4], the pEC50 was 8.30. This pEC50 lies 1.28 log units higher than the previous one.

The compound `O=C(C1CN(c2c3c(nc4ccnn24)CCNCC3)C1)N1CCC(c2ccc(F)cc2)CC1` [Example 31.110] showed a pEC50 of 7.52.

`CN1CCc2nc3ccnn3c(N3CC(C(=O)N4CCCNCC4)C3)c2CC1` [Example 36.59]: the pEC50 was 6.76. Compared with the last compound, the pEC50 is 0.76 log units lower. The result for `O=C(C1CN(c2c3c(nc4ccnn24)CCNCC3)C1)N1CC2CCCC2C1` (stereo not drawn) [Example 31.166] reads 7.01. Compound `FC(F)(F)c1ccc2c(c1)nc(C1CN(c3c4c(nc5ccnn35)CCNCC4)C1)n2Cc1ccccc1` [Example 34.34] gave a pEC50 of 5.68.

`CC1(C)CC2CC(C)(CN2C(=O)C2CN(c3c4c(nc5ccnn35)CCNCC4)C2)C1` (stereo not drawn) [Example 31.25]: the pEC50 was 5.82.

In turn, `Cc1ccc2c(c1)N(C(=O)C1CN(c3c4c(nc5ccnn35)CCNCC4)C1)CC2` [Example 31.176] gave a pEC50 of 7.02. The result for `c1ccc2cc(OC3CN(c4c5c(nc6ccnn46)CCNCC5)C3)ccc2c1` [Example 35.46] reads 6.31; that for `Cc1cc(OCC2CN(c3c4c(nc5ccnn35)CCNCC4)C2)ccc1F` [Example 15.4], 7.60; that for `COc1ccc(OCC2CN(c3c4c(nc5ccnn35)CCNCC4)C2)c(Cl)c1` [Example 15.16], 8.52.

On to `Fc1ccc2[nH]c(C3CN(c4c5c(nc6ccnn46)CCNCC5)C3)nc2c1` [Example 34.14], for which the pEC50 is 6.43.

The compound `CC1CN(C(=O)C2CN(c3c4c(nc5ccnn35)CCNCC4)C2)CC(C)N1C` (stereo not drawn) [Example 37.4] had a negative logarithm of the EC50 (pEC50) of 8.40. Compared with the last compound, the pEC50 is 1.97 log units higher. As to `O=C(C1CN(c2c3c(nc4ccnn24)CCNCC3)C1)N1CCC(c2ccccc2F)C1` (stereo not drawn) [Example 31.116], the pEC50 is 7.22. The result for `Cc1cc(C#N)cc(C)c1OC1CN(c2c3c(nc4ccnn24)CCNCC3)C1` [Example 35.15] reads 7.70.

`CN(C(=O)C1CN(c2c3c(nc4ccnn24)CCNCC3)C1)C1CC1` [Example 31.10] gave a pEC50 of 5.78.

`CC1CCN(C(=O)C2CN(c3c4c(nc5ccnn35)CCNCC4)C2)C1` (stereo not drawn) [Example 31.124] had a pEC50 of 7.03. The result for `O=C(C1CN(c2c3c(nc4ccnn24)CCNCC3)C1)N1CC[C@H](Oc2cccc(Cl)c2)C1` [Example 31.213] reads 6.99. The compound `O=C(C1CN(c2c3c(nc4ccnn24)CCNCC3)C1)N1CCc2cc(F)ccc21` [Example 31.217] gave a pEC50 of 7.25. The result for `OC1CN(c2c3c(nc4ccnn24)CCNCC3)C1` [Example 1.2] reads 6.90. Take `CCOC1CN(c2c3c(nc4ccnn24)CCNCC3)C1` [Example 20.2]: the pEC50 was 6.18. This pEC50 is 0.72 log units lower than that of the compound before. With `O=C(C1CN(c2c3c(nc4ccnn24)CCNCC3)C1)N1CCC2(CCCCC2)CC1` [Example 31.35], the pEC50 is 7.30.

The compound `N#CC1CN(c2c3c(nc4ccnn24)CCNCC3)C1` [Example 22, 1-(6,7,8,9-Tetrahydro-5H-1,4,7,10a-tetraaza-cyclohepta[f]inden-10-yl)-azetidine-3-carbonitrile] gave a pEC50 of 5.99. Take `c1ccc(Cn2c(C3CN(c4c5c(nc6ccnn46)CCNCC5)C3)nc3ccccc32)cc1` [Example 34.28]: the pEC50 was 6.73. The result for `Fc1cc(Cl)ccc1OC1CN(c2c3c(nc4ccnn24)CCNCC3)C1` [Example 35.22] reads 7.09. The result for `CN1CCc2nc3ccnn3c(N3CC(C(=O)NCCCC(F)(F)F)C3)c2CC1` [Example 36.47] reads 6.89; that for `CC1(C(=O)N2CCC3(CC2)OCc2ccccc23)CN(c2c3c(nc4ccnn24)CCNCC3)C1` [Example 32.5], 5.18; that for `CC1CCN(C(=O)C2CN(c3c4c(nc5ccnn35)CCNCC4)C2)CC1` [Example 31.228], 7.38. The result for `COc1ccc(OC2CN(c3c4c(nc5c(C)cnn35)CCNCC4)C2)cc1` [Example 27.2] reads 7.26; that for `c1nn2c(N3CCC3)c3c(nc2c1C1CC1)CCNCC3` [Example 29, 10-Azetidin-1-yl-3-cyclopropyl-6,7,8,9-tetrahydro-5H-1,4,7,10a-tetraaza-cyclohepta[f]indene], 7.09; that for `O=C(C1CN(c2c3c(nc4ccnn24)CCNCC3)C1)N1CCOC(c2ccccc2)C1` (stereo not drawn) [Example 31.8], 7.03. `CN(C)C(=O)C1CN(c2c3c(nc4ccnn24)CCNCC3)C1` [Example 9, 1-(6,7,8,9-Tetrahydro-5H-1,4,7,10a-tetraaza-cyclohepta[f]inden-10-yl)-azetidine-3-carboxylic acid dimethylamide] had a pEC50 of 7.15. This pEC50 and that of the compound before are within 0.2 log units of each other.

As for `COC[C@H]1CCCN1c1c2c(nc3ccnn13)CCNCC2` [Example 1.12], the pEC50 is 6.29. The result for `CN1CCc2nc3ccnn3c(N3CC(C(=O)N4CCC5(CC5)C4)C3)c2CC1` [Example 36.37] reads 7.21.

On to `O=C(C1CN(c2c3c(nc4ccnn24)CCNCC3)C1)N1C2CCCCC1CCC2` [Example 31.158], for which the pEC50 was 5.91. Consider `Clc1cccnc1OC1CN(c2c3c(nc4ccnn24)CCNCC3)C1` [Example 20.11], for which the pEC50 was 6.94. Take `O=C(C1CN(c2c3c(nc4ccnn24)CCNCC3)C1)N1CCc2ccccc2CC1` [Example 31.33]: the pEC50 was 6.71.

(Values after patent publication US20120165304A1, “6,7,8,9-Tetrahydro-5H-1,4,7,10a-tetraaza-cyclohept[f]indene derivatives, pharmaceutical compositions containing these compounds, their use and processes for preparing them” (BOEHRINGER INGELHEIM INTERNATIONAL GMBH, priority 2008, published 2012).)
